Drawing on PubChem BioAssay AID248 (DTP/NCI, 2004), this text covers T/C for 17 compounds.

The subject of the test is L1210 leukemia ip in BDF1 mice, survival T/C. Briefly: NCI In Vivo Anticancer Drug Screen. Data for tumor model L1210 Leukemia (intraperitoneal) in B6D2F1 (BDF1) mice. The note with it: endpoint: mean survival time, higher = longer survival. The gist of the method: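 Tumor was transplanted into mice, which were then dosed with test compound or vehicle alone. Survival was recorded for each group, and the treated figure was expressed relative to the control figure.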

[1] abbreviates: dose: 100.0 mg/kg/injection, schedule: Q01DX001 (ip), vehicle: saline.
Setting [2] is: dose: 100.0 mg/kg/injection, schedule: Q04DX003 (ip), vehicle: saline.
[3] abbreviates: dose: 200.0 mg/kg/injection, schedule: Q01DX001 (ip), vehicle: saline.
[4] abbreviates: dose: 200.0 mg/kg/injection, schedule: Q04DX003 (ip), vehicle: saline.
The mark [5] stands for this setting: dose: 400.0 mg/kg/injection, schedule: Q01DX001 (ip), vehicle: saline.
Where [6] appears, read: dose: 400.0 mg/kg/injection, schedule: Q04DX003 (ip), vehicle: saline.
Setting [7] is: dose: 50.0 mg/kg/injection, schedule: Q01DX001 (ip), vehicle: saline.
Where [8] appears, read: dose: 100.0 mg/kg/injection, schedule: Q01DX009 (ip), vehicle: saline.
[9] abbreviates: dose: 200.0 mg/kg/injection, schedule: Q01DX009 (ip), vehicle: saline.

Where “and” joins values, the source holds several entries; their conditions need not be identical. Equal entries are not always repeated. Inconclusive results and toxic doses are left out.

Take `O=C1OC(c2ccco2)=N/C1=C\c1ccc(Cl)c(Cl)c1`: the T/C (dose: 100.0 mg/kg/injection, schedule: Q04DX002 (ip), vehicle: saline with Tween-80) is 108 % of control; the T/C (dose: 200.0 mg/kg/injection, schedule: Q04DX002 (ip), vehicle: saline with Tween-80) is 105 % of control; the T/C (dose: 400.0 mg/kg/injection, schedule: Q04DX002 (ip), vehicle: saline with Tween-80) was 108 % of control.
For `CC1Cc2c(ccc3ccccc23)C1=O` (stereo not given), the T/C is 98 % of control under setting [1]; 94 % of control under setting [2]; 97 % of control under setting [3]; 94 % of control under setting [4]; 101 % of control under setting [5]; 95 % of control under setting [6].
With `COc1ccc(/C=C(\C(=O)c2ccc(O)cc2)c2ccccc2)cc1OC`, the T/C reads like this: (dose: 100.0 mg/kg/injection, schedule: Q01DX001 (ip), vehicle: carboxymethylcellulose (CMC)) 94 % of control; (dose: 200.0 mg/kg/injection, schedule: Q01DX001 (ip), vehicle: carboxymethylcellulose (CMC)) 89 % of control; (dose: 400.0 mg/kg/injection, schedule: Q01DX001 (ip), vehicle: carboxymethylcellulose (CMC)) 89 % of control.
Consider `O=[N+]([O-])c1ncc[nH]1`, for which the T/C is 96 % of control under setting [7], 98 % of control under setting [1] and 102 % of control under setting [3].
Take `[Tl][CH]1C=CC=C1`: the T/C (dose: 100.0 mg/kg/injection, schedule: Q01DX001 (ip), vehicle: acetone) was 93 % of control.
As for `Cc1ccccc1N=Nc1c(O)n(-c2ccc(Br)cc2)c(=S)n(-c2ccccc2)c1=O`, the T/C was 101 % of control (dose: 37.5 mg/kg/injection, schedule: Q01DX001 (ip), vehicle: Klucel (hydroxypropylcellulose) (HPC)); 101 % of control (dose: 75.0 mg/kg/injection, schedule: Q01DX001 (ip), vehicle: Klucel (hydroxypropylcellulose) (HPC)); 101 % of control (dose: 150.0 mg/kg/injection, schedule: Q01DX001 (ip), vehicle: Klucel (hydroxypropylcellulose) (HPC)).
Take `CCCCN(CCCC)c1ccc([N+](=O)[O-])c2no[n+]([O-])c12`: the T/C by setting is: (dose: 15.0 mg/kg/injection, schedule: Q04DX003 (ip), vehicle: saline with Tween-80) 100 % of control; (dose: 30.0 mg/kg/injection, schedule: Q04DX003 (ip), vehicle: saline with Tween-80) 100 % of control; (dose: 60.0 mg/kg/injection, schedule: Q04DX003 (ip), vehicle: saline with Tween-80) 100 % of control.
On to `[O-][n+]1onc2ccc(Cl)cc21`, for which the T/C is, setting by setting: (dose: 25.0 mg/kg/injection, schedule: Q01DX009 (ip), vehicle: Klucel (hydroxypropylcellulose) (HPC)) 101 % of control; (dose: 50.0 mg/kg/injection, schedule: Q01DX009 (ip), vehicle: Klucel (hydroxypropylcellulose) (HPC)) 98 % of control; (dose: 100.0 mg/kg/injection, schedule: Q01DX009 (ip), vehicle: Klucel (hydroxypropylcellulose) (HPC)) 95 % of control.
In the case of `CN=C([Se])NC`, the T/C runs as follows: (dose: 3.13 mg/kg/injection, schedule: Q01DX009 (ip), vehicle: saline with Tween-80) 106 % of control; (dose: 3.13 mg/kg/injection, schedule: Q04DX002 (ip), vehicle: saline with Tween-80) 98 % of control; (dose: 6.25 mg/kg/injection, schedule: Q01DX009 (ip), vehicle: saline with Tween-80) 103 % of control; (dose: 6.25 mg/kg/injection, schedule: Q04DX002 (ip), vehicle: saline with Tween-80) 95 % of control; (dose: 12.5 mg/kg/injection, schedule: Q01DX009 (ip), vehicle: saline with Tween-80) 97 % of control; (dose: 12.5 mg/kg/injection, schedule: Q04DX002 (ip), vehicle: saline with Tween-80) 87 % of control.
As to `O=C(O)c1cscc1Cc1cccs1`, the T/C reads like this: (dose: 100.0 mg/kg/injection, schedule: Q01DX001 (ip), vehicle: saline with Tween-80) 96 % of control; (dose: 200.0 mg/kg/injection, schedule: Q01DX001 (ip), vehicle: saline with Tween-80) 96 % of control; (dose: 400.0 mg/kg/injection, schedule: Q01DX001 (ip), vehicle: saline with Tween-80) 103 % of control.
Take `NCCCC(=O)O`: the T/C is 99 % of control under setting [1]; 100 % of control under setting [8]; 103 % of control under setting [2]; 105 % of control under setting [3]; 90 % of control under setting [9]; 98 % of control under setting [4]. Besides, the T/C is 101 % of control under setting [5]; 94 % of control (dose: 400.0 mg/kg/injection, schedule: Q01DX009 (ip), vehicle: saline); 101 % of control under setting [6].
Regarding `CN(CO)c1nc(N(C)CO)nc(N(C)CO)n1`, the T/C was 109 % of control (dose: 6.25 mg/kg/injection, schedule: Q01DX009 (ip), vehicle: saline); 113 % of control (dose: 12.5 mg/kg/injection, schedule: Q01DX009 (ip), vehicle: saline); 120 % of control (dose: 25.0 mg/kg/injection, schedule: Q01DX009 (ip), vehicle: saline); 166 % of control under setting [8]; 86 % of control under setting [9].
For the compound `CCOC(=O)C(C(=O)CC)C(COC)C(=O)OC` (stereo not given), the T/C by setting is: (dose: 100.0 mg/kg/injection, schedule: Q01DX001 (ip), vehicle: other) 92 % of control; (dose: 200.0 mg/kg/injection, schedule: Q01DX001 (ip), vehicle: other) 96 % of control; (dose: 400.0 mg/kg/injection, schedule: Q01DX001 (ip), vehicle: other) 97 % of control.
Consider `Cc1c(/C=N/NC(=O)CCCC(=O)N/N=C/c2c(C)n(C)n(-c3ccccc3)c2=O)c(=O)n(-c2ccccc2)n1C`, for which the T/C under setting [7] is 102 % of control and the T/C under setting [1] is 93 % of control.
In the case of `NC(=S)NO`, the T/C runs as follows: (dose: 50.0 mg/kg/injection, schedule: Q04DX003 (ip), vehicle: other) 101 % of control; (dose: 100.0 mg/kg/injection, schedule: Q04DX003 (ip), vehicle: other) 107 % of control; (dose: 200.0 mg/kg/injection, schedule: Q04DX003 (ip), vehicle: other) 104 % of control; (dose: 400.0 mg/kg/injection, schedule: Q04DX003 (ip), vehicle: other) 96 % of control.
Regarding `CC(=O)OC(C)(C)/C=C/C(=O)[C@](C)(O)[C@H]1[C@H](O)C[C@@]2(C)[C@@H]3CC=C4[C@@H](C[C@H](O)C(=O)C4(C)C)[C@]3(C)C(=O)C[C@]12C`, the T/C is, setting by setting: (dose: 0.12 mg/kg/injection, schedule: Q01DX009 (ip), vehicle: saline) 88 % of control; (dose: 0.12 mg/kg/injection, schedule: Q04DX003 (ip), vehicle: saline) 98 % of control; (dose: 0.16 mg/kg/injection, schedule: Q01DX Z (ip), vehicle: saline) 100 % of control; (dose: 0.25 mg/kg/injection, schedule: Q01DX001 (ip), vehicle: saline) 92 % of control; (dose: 0.25 mg/kg/injection, schedule: Q01DX009 (ip), vehicle: saline) 100 % of control; (dose: 0.25 mg/kg/injection, schedule: Q01DX Z (ip), vehicle: saline) 113 % of control. Also, the T/C (dose: 0.25 mg/kg/injection, schedule: Q04DX003 (ip), vehicle: saline) was 102 % of control; the T/C (dose: 0.38 mg/kg/injection, schedule: Q01DX Z (ip), vehicle: saline) is 103 % of control; the T/C (dose: 0.4 mg/kg/injection, schedule: Q01DX Z (ip), vehicle: carboxymethylcellulose (CMC)) was 93 % of control and 103 % of control; the T/C (dose: 0.5 mg/kg/injection, schedule: Q01DX001 (ip), vehicle: saline) was 98 % of control; the T/C (dose: 0.5 mg/kg/injection, schedule: Q01DX009 (ip), vehicle: saline) is 103 % of control; the T/C (dose: 0.5 mg/kg/injection, schedule: Q04DX003 (ip), vehicle: saline) was 106 % of control. Further, the T/C is 103 % of control (dose: 0.57 mg/kg/injection, schedule: Q01DX Z (ip), vehicle: saline) and 108 % of control (dose: 0.8 mg/kg/injection, schedule: Q01DX Z (ip), vehicle: carboxymethylcellulose (CMC)).
Take `CC1C(=O)C2C(CCC3=CC(=O)CCC32C)C2CCC(C(C)(C)OCCO)C12C` (stereo not given): the T/C (dose: 50.0 mg/kg/injection, schedule: Q01DX001 (sc), vehicle: steriod suspending solution) is 105 % of control; the T/C (dose: 100.0 mg/kg/injection, schedule: Q01DX001 (sc), vehicle: steriod suspending solution) was 102 % of control; the T/C (dose: 200.0 mg/kg/injection, schedule: Q01DX001 (sc), vehicle: steriod suspending solution) is 107 % of control; the T/C (dose: 400.0 mg/kg/injection, schedule: Q01DX001 (sc), vehicle: steriod suspending solution) is 96 % of control.
